Measured values as given in EP0715517B1, “ESTRENE STEROIDS AS NEU[…] CHANGE IN HUMAN HY[…] AND RELATED PHARMACEUTICAL COMPOSITIONS” (priority 1993, dated 1994).
“Also recorded” adds a separate entry of the source.

Key:
[1] = tested on: VNO; details: 2% lidocaine applied to the respiratory epithelium of the nasal septum; preliminary evidence, Monti-Bloch and Grosser 1991; cited from earlier work
[2] = tested on: VNO; assay: Comparison of the change in receptor potential induced by two Estrene steroids (Example 23); type: in vivo, human; details: 60 picograms; a subject; Fig. 5
Protocol: 60 picograms of each steroid and of a propylene glycol control were administered to a subject as described in Example 21.

[3] = tested on: VNO; assay: Electro-vomeronasogram (EVG) (Example 25); type: in vivo, human; details: male subjects (ages 20 to 38); 100 fmoles; 1 second pulses; p<0.01; Fig. 6A
Protocol: The following electrophysiological studies were performed in 60 clinically normal human volunteers of both sexes (30 male and 30 female) whose ages ranged from 20 to 45 years. No anesthetics were used, and female subjects were excluded if pregnant.
The stimulation and recording system consists of a "multifunctional miniprobe" described elsewhere (Monti-Bloch, L. and Grosser, B.l. (1991) "Effect of putative pheromones on the electrical activity of the human vomeronasal organ and olfactory epithelium," J. Steroid Biochem. Molec. Biol. 39:573-582.). The recording electrode is a 0.3 mm silver ball attached to a small (0.1 mm) silver wire insulated with Teflon© the surface of the electrode is first treated to produce a silver chloride interface, and is then covered with gelatin It is positioned within a small caliber Teflon© catheter (dia = […]) such that the tip of the electrode protrudes approximately 2 mm. The Teflon© catheter is 10 cm in length and constitutes the terminal extension for a multichannel delivery system which delivers a continuous air stream carrying discreet pulses of chemosensory stimuli. The air stream first passes into a small chamber and is bubbled through a solution containing either a vomeropherin or an olfactant in a diluent or the diluent alone. A solenoid is used to rapidly redirect the air stream from the chamber to a route which bypasses the chamber. This creates a discreet pulse of stimulant in the air stream. A second, outer Teflon® tube with a diameter of 2 mm surrounds the catheter-electrode assemblage, and its central end is connected to an aspirator that provides continuous suction of 3ml/s. This concentric arrangement of the outer suction tube allows the emitted chemosensory stimuli to be localized to an area we call a "minifield" (approx. dia = 1 mm), and it avoids diffusion of substances either to the area outside the intended stimulation site or into the respiratory system. The entire stimulating and recording assemblage may be positioned either on the neurosensory epithelium within the VNO, or on the surface of the olfactory or respiratory epithelium. Electro-vomeronasogram (EVG): Recordings are carried out in a quiet room with the subject supine; the multifunctional miniprobe is initially stabilized within the nasal cavity using a nasal retractor placed in the vestibule. Reference and ground electrodes consist of silver discs (8 mm), both of which are positioned on the glabella.
The entrance to the VNO, or vomeronasal pit, is identified by first dilating the nasal aperture and vestibule. A 6x magnifying binocular loupe with halogen illumination is then used to introduce the tip of the Teflon® catheter and recording electrode assemblage into the VNO opening where it is stabilized at an approximate depth of 1 mm within the vomeronasal passage. Optimal placement of the recording electrode is signaled after testing for an adequate depolarization in response to a test substance.
Electrical signals from the recording electrode are fed to a DC amplifier after which they are digitized, computer monitored, and stored. The peak-to-peak amplitude of the signals is measured, and the area under the depolarization wave is integrated, while continuously monitoring the signal both on the computer screen and on a digital oscilloscope. Artifacts produced by respiratory movements are deleted by training the subjects to practice mouth breathing with velopharyngeal closure. Chemosensory Stimulants: Olfactory test substances are cineole, and 1-carvone; vomeropherins are A, B, C, E and F. (Vomeropherins were supplied by Pherin Corporation, Menlo Park, California), Samples of vomeropherins In concentration of 25-800 fmoles are delivered in the continuous air stream for durations from 300 milliseconds to 1 second. Usually, intervals of 3 to 5 minutes separated each series of short test pulses. […]

[4] = tested on: VNO; assay: Skin temperature (ST) after VNO stimulation (Example 25); type: in vivo, human; details: 30 male subjects; p<0.01; Fig. 6G
Protocol: (§1) Cortical evoked activity was induced by VNO stimulation with vomeropherins, and olfactory stimulation with odorants delivered in 300 ms air pulses. It was recorded using standard electroencephalographic (EEG) electrodes placed at positions Cz-A1 and Tz-A1 of the international […] system; the ground electrode was placed on the mastoid process. Electrodermal activity (EDA) was recorded using standard 8 mm silver electrodes in contact with palmar skin of the medial and ring fingers respectively, through a conductive gel interface. Skin temperature (ST) was recorded by a small (1.0 mm) thermistor probe placed in the right ear lobe. Peripheral arterial pulse (PAP) was monitored with a plethysmograph attached to the tip of the index finger. Respiratory frequency (RF) was measured with an adjustable strain gauge placed around the lower thorax. All electrical signals were DC amplified, digitized (MP-100, Biopac Systems) and continuously monitored utilizing a computer. Statistical Analysis: EVGs or EOGS, peak-to-peak changes and frequency changes of other parameters were measured and statistically analyzed. The significance of the results was determined by either using paired t-tests or analysis of variance (ANOVA). […] Recordings of the EVG were performed on 30 men and 30 women (ages 20 to 45). Vomeropherins were diluted and applied as 1 second pulses to the VNO with […] intervals between pulses when questioned, the subjects were not able to "smell" or otherwise consciously detect any of the vomeropherins.

[5] = tested on: VNO; assay: Cortical evoked activity (EEG, alpha cortical activity) after VNO stimulation (Example 25); type: in vivo, human; details: males, 200 fmoles, Fig. 6E
Protocol: as §1
[…] […] Synchronization of the EEG was sustained for 1.5 to 2.7 minutes after application of a single pulse of active substance.

CCN(CC)CC(=O)Nc1c(C)cccc1C [lidocaine]
effect of local anesthetic on the EVG [1]: neither blocks nor diminishes the EVG

COc1ccc2c(c1)CC[C@@H]1[C@@H]2CC[C@]2(C)C=CC[C@@H]12 [D, 3-Methoxy-Estra-1,3,5(10),16-tetraene]
change in receptor potential [2]: greater change in receptor potential than did 1,3,5(10),16-Estratetraen-3-yl acetate
EVG average response (mean) [3]: 15.1 mV
skin temperature (ST) [4]: significant temperature decrease
alpha cortical activity ([5]; air pulses 300 ms to 1 sec): significantly increased alpha cortical activity; also recorded: strongest effect
latency of increase in alpha cortical activity [5]: 270 to 380 ms
